Reference: article PMC12118597 (Science Advances, 2025)
Where “and” joins values, the source holds several entries; their conditions need not be identical. Equal values may be shown once. Read-outs that look alike come from different tables or passages of the source.

How the values were obtained:
[1] = molecular target: T1, SARS-CoV-2 NSP3 macrodomain (Mac1) (Severe acute respiratory syndrome coronavirus 2, UniProt P0DTD1); experiment: biochemical; assay type: binding; settings: for Average % competition: Single dose, concentration 200 μM
[2] = molecular target: T1, SARS-CoV-2 NSP3 macrodomain (Mac1); assay type: binding; settings: for Number of isomers bound: ligand modeling, Mac1 crystal soak; for 1-BDC: PanDDA background density correction; for X-ray crystal structure: TRUE = crystal structure with ligand obtained; for Hit (PanDDA run, overall): crystal soak, 10 mM soak concentration; for Refined ligand occupancy (%): crystallographic refinement; for 2*(1-BDC) (%): occupancy estimate from PanDDA; for Binding site: site of ligand in X-ray crystal structure
[3] = SARS CoV-2 macrodomain HTRF assay, single dose concentration 200 μM, read-out: Average % competition
[4] = compound at 200 μM, mean of three to four technical replicates, read-out: % competition at 200 μM (preliminary HTRF screen)
[5] = crystal soak 10 mM, TFA/DMSO background map
[6] = stereoisomer(s) modeled as bound, residues 201/202/203
[7] = SARS CoV-2 macrodomain HTRF assay
[8] = SARS CoV-2 macrodomain HTRF assay, dose-response, read-out: IC50
[9] = crystal soak 10 mM, P43 crystal form
[10] = crystal soak 10 mM, DMSO background map
[11] = read-out: IC50 (confirmatory HTRF dose-response screen)
[12] = HTRF binding curve, SARS-CoV-2 Mac1
[13] = SARS CoV-2 macrodomain HTRF assay, dose-response
[14] = crystal soak 10 mM, DMSO background map, event 1
[15] = stereoisomer(s)/conformations of the soaked ligand modeled in the Mac1 crystal structure

Row | SMILES | inhibition at 200 µM [1, 3] [%] | inhibition at 200 µM [1, 4] [%] | Number of isomers bound [2] | Ki [1, 7] [µM] | Ligand efficiency (binding enery per heavy atom) [1, 7] | IC50 [1, 8] [µM] | Isomers modeled [2, 15] | further results
1 | O=C(O)C(F)(F)F.OC[C@@H]1CC2(CC2)CN1c1ncnc2[nH]ccc12 [AVI-3710] | 57 | 57 | 1 | – | – | – | – | PanDDA run, TFA/DMSO background map: 1-BDC [2, 5]: 0.23; PanDDA run, TFA/DMSO background map: Hit [2, 5]: TRUE; Isomers modeled [2, 6]: S,S
2 | OCC(Cc1cccs1)Nc1ncnc2[nH]ccc12 (stereo not drawn) [AVI-3711] | – | 63 | 1 | – | – | – | – | Average % competition [1]: 63%; PanDDA run, TFA/DMSO background map: 1-BDC [2, 5]: 0.16; PanDDA run, TFA/DMSO background map: Hit [2, 5]: TRUE
3 | OCC1C2CCC(C2)N1c1ncnc2[nH]ccc12 (stereo not drawn) [AVI-3713] | – | – | 1 | 25 | 0.35 | 27 | – | Isomers modeled [2, 6]: SSR
4 | OCC(Nc1ncnc2[nH]ccc12)c1ccccc1 (stereo not drawn) [AVI-3715] | – | 54 | 1 | – | – | – | – | Average % competition [1]: 54%; PanDDA run, TFA/DMSO background map: 1-BDC [2, 5]: 0.09; PanDDA run, TFA/DMSO background map: Hit [2, 5]: TRUE
5 | OCC1COCCN1c1ncnc2[nH]ccc12 (stereo not drawn) [AVI-3717] | 62 | 62 | 2 | – | – | – | – | Isomers modeled [2, 6]: R,S
6 | CC(C)(C)C1CCC(CO)N(c2ncnc3[nH]ccc23)C1 (stereo not drawn) [AVI-3719] | 36 | 36 | 1 | – | – | – | – | –
7 | OC[C@@H]1C[C@@H]2CCC[C@@H]2N1c1ncnc2[nH]ccc12 [AVI-3720] | – | – | 1 | 26 | 0.33 | 28 | – | Isomers modeled [2, 6]: SSS
8 | CN1CCN(c2ncnc3[nH]ccc23)C(CO)C1 (stereo not drawn) [AVI-3721] | 11 | 11 | 1 | – | – | – | – | Isomers modeled [2, 6]: R,R
9 | CC(C)(C)[C@@H]1CCN(c2ncnc3[nH]ccc23)[C@H](CO)C1 [AVI-3722] | 22 | 22 | 1 | – | – | – | – | –
10 | OC[C@H]1CN2CCC[C@H]2CN1c1ncnc2[nH]ccc12 [AVI-3724] | < 10 | < 10 | – | – | – | – | – | PanDDA run, overall: Hit [2, 9]: TRUE; PanDDA run, overall: Modeling comment [2, 9]: Weak density, not modeled; PanDDA run, DMSO background map: 1-BDC [2, 10]: 0.05; PanDDA run, DMSO background map: Hit [2, 10]: TRUE
11 | CC1(C)CCC(CO)N(c2ncnc3[nH]ccc23)C1 (stereo not drawn) [AVI-3726] | 76 | 76 | 2 | – | – | – | – | Isomers modeled [2, 6]: R,R,S
12 | OCC1CC2(CCCCC2)CN1c1ncnc2[nH]ccc12 (stereo not drawn) [AVI-3727] | 67 | 67 | 1 | – | – | – | – | PanDDA run, TFA/DMSO background map: 1-BDC [2, 5]: 0.25; PanDDA run, TFA/DMSO background map: Hit [2, 5]: TRUE
13 | OCC1CC2(CCC2)CN1c1ncnc2[nH]ccc12 (stereo not drawn) [AVI-3728] | 79 | 79 | 1 | – | – | – | – | PanDDA run, TFA/DMSO background map: 1-BDC [2, 5]: 0.26; PanDDA run, TFA/DMSO background map: Hit [2, 5]: TRUE; Isomers modeled [2, 6]: S,S
14 | C[C@@H](O)[C@H](CO)Nc1ncnc2[nH]ccc12.O=C(O)C(F)(F)F [AVI-3730] | – | 63 | 1 | – | – | – | – | Average % competition [1]: 63%; PanDDA run, TFA/DMSO background map: 1-BDC [2, 5]: 0.12; PanDDA run, TFA/DMSO background map: Hit [2, 5]: TRUE
15 | O=C(O)C(F)(F)F.OC1([C@H]2CCCN2c2ncnc3[nH]ccc23)Cc2ccccc2C1 [AVI-3731] | – | – | 1 | 3.4 | 0.31 | – | – | IC50 [1, 11]: 3.7 µM; PanDDA run, TFA/DMSO background map: 1-BDC [2, 5]: 0.14; PanDDA run, TFA/DMSO background map: Hit [2, 5]: TRUE
16 | Cc1nn(C)cc1C1CC[C@H](CO)N1c1ncnc2[nH]ccc12 (stereo partly drawn) [AVI-3733] | 44 | 44 | 1 | – | – | – | – | –
17 | OCCC(CO)Nc1ncnc2[nH]ccc12 (stereo not drawn) [AVI-3734] | – | – | 1 | 48 | 0.37 | – | – | IC50 [1, 11]: 52 µM
18 | Cc1c[nH]c2ncnc(NCC(C)(C)O)c12 [AVI-3758, 2-methyl-1-((5-methyl-7H-pyrrolo[2,3-d]pyrimidin-4-yl)amino)propan-2-ol] | – | – | – | 26 | 0.40 | – | – | Hill slope [1, 12]: 1.0; Hill slope [1, 13]: 1.0; IC50 [1, 11]: 28 µM; 1-BDC [2]: 0.14; X-ray crystal structure [2]: TRUE; Hit (PanDDA run, DMSO background map) [2, 10]: TRUE; 1-BDC (PanDDA run, DMSO background map) [2, 14]: 0.19 and 0.14; Hit (PanDDA run, overall) ([2]; P43 crystal form): TRUE; Refined ligand occupancy (%) [2]: 50%; 2*(1-BDC) (%) [2]: 28%; Binding site [2]: Adenosine
19 | Cc1c[nH]c2ncnc(NCC3(O)CCCC3)c12 [AVI-3760, 1-(((5-methyl-7H-pyrrolo[2,3-d]pyrimidin-4-yl)amino)methyl)cyclopentan-1-ol] | – | – | – | 18 | 0.36 | 19 | – | Hill slope [1, 12]: 1.1; Hill slope [1, 13]: 1.1; 1-BDC [2]: 0.16; X-ray crystal structure [2]: TRUE; Hit (PanDDA run, DMSO background map) [2, 10]: TRUE; 1-BDC (PanDDA run, DMSO background map) [2, 14]: 0.19 and 0.16; Hit (PanDDA run, overall) ([2]; P43 crystal form): TRUE; Refined ligand occupancy (%) [2]: 50%; 2*(1-BDC) (%) [2]: 32%; Binding site [2]: Adenosine
20 | C[C@@H]1CCN(c2ncnc3[nH]ccc23)[C@H](CO)C1 [AVI-4064] | – | – | – | 93 | 0.31 | 100 | RS,SR | –
21 | O=C(O)C(F)(F)F.OC[C@H](Cc1ccc(O)cc1)Nc1ncnc2[nH]ccc12 [AVI-4066] | – | – | – | 670 | 0.21 | 720 | – | Hit (PanDDA run, TFA/DMSO background map) [2, 5]: TRUE; 1-BDC (PanDDA run, TFA/DMSO background map) ([2]; crystal soak 10 mM, TFA/DMSO background map, event 1): 0.19 and 0.29 and 0.3
22 | CC(C)(O)C1N(c2ncnc3[nH]ccc23)CCC1(C)C (stereo not drawn) [AVI-4126] | – | – | – | 93 | 0.28 | 100 | R,S | –
23 | CC(C)(O)C1C2CCCCC2CN1c1ncnc2[nH]ccc12 (stereo not drawn) [AVI-4127] | – | – | – | 120 | 0.25 | 130 | SSR,SRS | –
24 | CC(C)(O)C1C2CCC2CN1c1ncnc2[nH]ccc12 (stereo not drawn) [AVI-4128] | – | – | – | 22 | 0.32 | – | SRR | IC50 [1, 11]: 24 µM
25 | CC1CCC(O)(CNc2ncnc3[nH]ccc23)CC1 (stereo not drawn) [AVI-4312] | – | – | – | 20 | 0.34 | 21 | rr | –
26 | Cc1c[nH]c2ncnc(NCC3(O)CCC(C)CC3)c12 (stereo not drawn) [AVI-4331] | – | – | – | – | 0.26 | 210 | rr | –
27 | CC(O)C(C)Nc1ncnc2[nH]ccc12 (stereo not drawn) [AVI-5158] | – | 32 | – | – | – | – | RS,RR | Average % competition [1]: 32%
28 | CC1(C)CCN(c2ncnc3[nH]ccc23)C(CO)C1 (stereo not drawn) [AVI-5994] | – | – | – | 63 | 0.31 | 68 | S,S | –
29 | O[C@H]1CC[C@H]2CCN(c3ncnc4[nH]ccc34)[C@H]21 [AVI-5997] | – | – | – | 34 | 0.34 | 37 | SSR | –
